Experimental data taken from ChEMBL document CHEMBL1201862, “PubChem BioAssay data set” (2004).
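How tested: cells in 96-well plates exposed to compound for 48 hours at five concentrations. Abbreviation: GI50, concentration required for 50% inhibition of growth.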 Activity calls are given as the source filed them. No stated cut-off is given here; in the data, active = GI50 up to about 1.1 µM and inactive = higher.

Experiments:
Test in all cases: NCI-60 cell line screen, 48 h
[1] = test system: HCC 2998
[2] = test system: HL-60
[3] = test system: IGROV-1
[4] = test system: M14
[5] = test system: MOLT-4
[6] = test system: NCI-H23
[7] = test system: OVCAR-3
[8] = test system: RPMI-8226
[9] = test system: SK-MEL-28
[10] = test system: SN12C
[11] = test system: SW-620
[12] = test system: TK-10
[13] = test system: UACC-257
[14] = test system: NCI-H226
[15] = test system: SK-OV-3
[16] = test system: SR
[17] = test system: CAKI-1

Measured: GI50

CC(C)(C)CC(C)(C)c1cc2c(O)c(c1)Cc1cc(C(C)(C)CC(C)(C)C)cc(c1O)Cc1cc(C(C)(C)CC(C)(C)C)cc(c1O)Cc1cc(C(C)(C)CC(C)(C)C)cc(c1O)C2
inactive: [1] > 100 µM | [2] > 100 µM | [3] > 100 µM | [4] > 100 µM | [5] > 100 µM | [6] > 100 µM | [7] > 100 µM | [8] > 100 µM | [9] > 100 µM | [10] > 100 µM | [11] > 100 µM | [12] > 100 µM | [13] > 100 µM

CCCCC(/C=N/NC(=N)N)CC.Cc1cc(O)c(C(C)C)cc1S(=O)(=O)O
inactive: [1] 17.5 µM | [2] 8.85 µM | [3] 92.9 µM | [4] 36.2 µM | [5] 36.1 µM | [14] 18.2 µM | [6] 35 µM | [7] 37.2 µM | [8] 38.8 µM | [9] 40.6 µM | [15] 59.8 µM | [10] 97.5 µM | [16] 21.9 µM | [11] 27 µM | [12] 61.7 µM | [13] 41.3 µM

Clc1ccc(C2N3CCCCC3[C@@H]3c4[nH]c5ccccc5c4CCN23)cc1 (stereo not given in full)
inactive: [17] > 100 µM | [1] 34.9 µM | [2] 24.9 µM | [3] > 100 µM | [4] 38.3 µM | [5] 64.7 µM | [6] 42.9 µM | [7] 50.5 µM | [8] 90.2 µM | [9] > 100 µM | [15] > 100 µM | [10] 24.1 µM | [11] 44.9 µM | [12] > 100 µM | [13] 83 µM

COc1cc(/C=C/c2cccnc2)cc(OC)c1OC
inactive: [17] > 100 µM | [2] 98.2 µM | [3] > 100 µM | [4] > 100 µM | [5] > 100 µM | [14] > 100 µM | [6] > 100 µM | [7] > 100 µM | [8] > 100 µM | [9] > 100 µM | [10] > 100 µM | [11] > 100 µM | [12] 58.6 µM | [13] > 100 µM

CC(NC(=O)c1ccccc1)C(=O)N(Cc1ccccc1)Cc1ccccc1 (stereo not given)
inactive: [17] 34.9 µM | [1] 35.6 µM | [3] 34 µM | [4] 21 µM | [5] 14.1 µM | [14] 23.4 µM | [6] 24.5 µM | [8] 21 µM | [9] 25.7 µM | [15] 33.7 µM | [10] 37.4 µM | [16] 29.9 µM | [11] 51.1 µM | [12] 60.1 µM | [13] 40.2 µM

COC1(OC)CC2OC1C1N=NN(C(=O)OC(C)(C)C)C21 (stereo not given)
inactive: [17] > 100 µM | [1] > 100 µM | [2] 24.3 µM | [3] > 100 µM | [4] > 100 µM | [5] 35.2 µM | [14] > 100 µM | [6] > 100 µM | [7] 49.3 µM | [8] 52.7 µM | [9] > 100 µM | [15] > 100 µM | [10] > 100 µM | [11] 57.5 µM | [13] > 100 µM

NNC(=S)N/N=C(\CC1OC(=O)c2ccccc21)c1ccccc1O (stereo not given)
inactive: [17] 71.8 µM | [1] 32.7 µM | [2] 24.4 µM | [3] 38 µM | [4] 61.9 µM | [5] 23 µM | [14] 33.6 µM | [6] 49.9 µM | [7] 37.5 µM | [9] 57.1 µM | [15] > 100 µM | [10] 46.8 µM | [16] 16.3 µM | [11] 55.7 µM | [12] > 100 µM | [13] > 100 µM

C1CCN(c2nc(=[N+]3CCCCC3)ss2)CC1
inactive: [17] > 100 µM | [1] > 100 µM | [2] > 100 µM | [3] > 100 µM | [4] > 100 µM | [5] > 100 µM | [14] 19.1 µM | [6] 73.3 µM | [8] > 100 µM | [9] 84.9 µM | [15] 71.9 µM | [10] > 100 µM | [16] > 100 µM | [11] > 100 µM | [12] > 100 µM | [13] > 100 µM

CCOC(=N)CC(=O)Nc1ccccc1
inactive: [17] > 100 µM | [1] > 31.6 µM | [2] > 100 µM | [3] > 46.5 µM | [4] > 46.5 µM | [5] > 31.6 µM | [14] > 31.6 µM | [6] > 46.5 µM | [7] > 31.6 µM | [8] 15.9 µM | [9] > 46.5 µM | [15] > 100 µM | [10] > 46.5 µM | [16] > 39.9 µM | [11] 36.9 µM | [12] > 46.5 µM | [13] > 46.5 µM

Clc1cccc(C2SCc3nc4ccccc4n32)c1Cl (stereo not given)
inactive: [17] 16.3 µM | [2] 5.18 µM | [3] 16.6 µM | [4] 16.6 µM | [5] 11.1 µM | [6] 17.8 µM | [7] 19 µM | [8] 13.3 µM | [9] 21.1 µM | [15] 20.1 µM | [10] 16.1 µM | [11] 17.1 µM | [12] 15.6 µM | [13] 15.2 µM

Nc1nc(O)c2nc(N)n(Cc3ccccc3)c2n1
inactive: [17] > 100 µM | [1] > 100 µM | [2] > 100 µM | [3] > 100 µM | [4] > 100 µM | [5] > 100 µM | [6] > 100 µM | [7] > 100 µM | [8] > 100 µM | [9] > 100 µM | [15] > 100 µM | [10] > 100 µM | [16] > 100 µM | [11] > 100 µM | [12] > 100 µM | [13] > 100 µM

CCOC(=O)C1C(=O)C(C(=O)OCC)C(c2ccccc2)N(C)C1c1ccccc1 (stereo not given)
inactive: [17] > 100 µM | [2] 38.7 µM | [3] > 100 µM | [4] > 100 µM | [5] 49.5 µM | [14] > 100 µM | [6] > 100 µM | [7] > 100 µM | [9] > 100 µM | [15] > 100 µM | [10] > 100 µM | [16] > 100 µM | [11] > 100 µM | [12] > 100 µM | [13] > 100 µM

C/C=C/COC(=O)CO[N+](=O)[O-]
inactive: [17] > 100 µM | [1] > 100 µM | [2] > 100 µM | [3] > 100 µM | [4] > 100 µM | [5] > 100 µM | [14] > 100 µM | [6] > 100 µM | [7] > 100 µM | [8] > 100 µM | [15] > 100 µM | [10] > 100 µM | [16] > 100 µM | [11] > 100 µM | [12] > 100 µM | [13] > 100 µM

Cc1ccccc1NC(=O)CC1C(=O)Nc2ccccc2[S+]1[O-] (stereo not given)
inactive: [17] > 100 µM | [1] > 100 µM | [2] > 100 µM | [3] 88.1 µM | [4] > 100 µM | [5] > 100 µM | [14] > 100 µM | [6] > 100 µM | [7] > 100 µM | [8] > 100 µM | [9] > 100 µM | [10] 74 µM | [16] > 100 µM | [11] > 100 µM | [12] > 100 µM | [13] > 100 µM

CCn1c2ccccc2c2ccc3c(c21)C(=O)c1ccccc1C3=O
inactive: [1] > 100 µM | [2] 36.8 µM | [3] > 100 µM | [4] > 100 µM | [5] 61.5 µM | [14] > 100 µM | [6] > 100 µM | [8] > 100 µM | [9] > 100 µM | [15] > 100 µM | [10] > 100 µM | [16] 10.4 µM | [11] > 100 µM | [13] > 100 µM

CC(=O)OC1C/C(C)=C/CCC(C)/C=C/C2(C)CCC(C(C)(C)O)C12 (stereo not given)
inactive: [17] 59 µM | [1] 57.4 µM | [2] 24.2 µM | [3] 36.8 µM | [4] 52.6 µM | [5] 30.4 µM | [14] 45.1 µM | [6] 42.5 µM | [7] 46.7 µM | [8] 23.2 µM | [9] 72.1 µM | [15] > 100 µM | [10] 32.1 µM | [16] 18.6 µM | [11] 47.5 µM | [12] > 100 µM | [13] 26.1 µM

Nc1nc2c3nc(Nc4ccccc4)sc3nc(=O)n2c2sc(Nc3ccccc3)nc12
inactive: [1] > 100 µM | [2] > 100 µM | [3] > 100 µM | [4] > 100 µM | [5] > 100 µM | [14] > 100 µM | [6] > 100 µM | [8] > 100 µM | [9] > 100 µM | [15] > 100 µM | [10] > 100 µM | [16] > 100 µM | [11] > 100 µM | [13] > 100 µM

O=CC1=CCCN(CCc2c[nH]c3ccccc23)C1
inactive: [17] 75.5 µM | [1] 71.6 µM | [2] 11.2 µM | [3] 86.5 µM | [5] 13.2 µM | [14] 46.3 µM | [6] 47.6 µM | [7] 42.6 µM | [8] 37.2 µM | [9] 11.9 µM | [15] 86.5 µM | [10] 46.2 µM | [16] 11.8 µM | [11] 17.6 µM | [12] 76.6 µM | [13] 63.8 µM
